Columns and labels:
peritoneal macrophages [1] = assay: Activation of peritoneal macrophages: chemiluminescence (oxidative metabolism); settings: for Chemiluminescence: single dose
peritoneal macrophages [2] = assay: Stimulation of the release of lysosomal enzymes from peritoneal macrophages (exocytosis); settings: for Enzyme activity N-Ac-Glu / Enzyme activity β-Gal / Enzyme activity β-Glu: single dose
Salmonella typhimurium = assay: Chronic Salmonella typhimurium infection in the mouse; type: in vivo, female NMRI mice; settings: 10 × 5 mg/kg i.p.; day 22
Method: Female NMRI mice (20 animals/group) were infected by intravenous administration of 5×10^3 Salmonella typhimurium organisms. The animals subsequently developed a chronic infection which was characterized by persistent bacterial colonization of the organs, such as the liver and the spleen, with necrosis. The test substance was administered intraperitoneally in a dose of 5 mg/kg at intervals of two days from day 3 to day 21 after infection. The animals in a control group received only the vehicle. On day 22 after the infection, the mortality in both experimental groups was determined, and the organs of the animals which survived were examined for organisms and necrosis.

B16 melanoma = assay: Stimulation of defenses against B16 melanoma in the mouse; type: in vivo, female C57B1/6 mice; settings: intervals of 2 days, day 4 to day 100
Source text: A primary tumor was generated with 2×10^5 live B16 melanoma cells in female C57B1/6 mice with a body weight of 18 to 20 g and, after having grown to a diameter of 0.65 cm, was removed surgically. The animals subsequently died of metastases in the lung. The investigation now was of whether the mean survival time after removal of the primary tumor, that is to say the time at which 50% of the animals are still alive, can prolonged by intraperitoneal treatment with the compounds of the formula I. For this purpose, after amputation of the primary tumor, the mice were divided into groups each containing 10 animals and were treated with i.p. doses each of 1.25 or 2.5 mg/kg test substance at intervals of 2 days from day 4 to day 100. The animals in the control group received merely the pure vehicle PBS (physiological saline) in the same therapeutic regimen.

Listeria monocytogenes [3] = assay: Mortality and organ colonization in mice infected with Listeria monocytogenes; type: in vivo, female NMRI mice; settings: 4 × 10 mg/kg i.p.
Source text: Female NMRI mice (10 animals/group) were infected with a low dose of Listeria monocytogenes (2×10^2).

Staphylococcus aureus = Staphylococcus aureus infection of immunosuppressed mice; type: in vivo, female B6D2F1 mice; settings: up to day 45
Source text: It is known that distinct immunosuppression can be induced in experimental animals by multiple administration of a cytostatic and is expressed by an increased susceptibility to infection with a drastic rise in mortality. […] Another group of infected animals which had not, however, been immunosuppressed by pretreatment with ADM was included as negative control. The immunosuppressed animals in the three active product groups received, on 4 consecutive days starting one day before the infection, the test substance, with intraperitoneal doses each of 0.1, 1 or 10 mg/kg being administered. Each experimental group comprised 20 animals.

aminopeptidase B = aminopeptidase B (Homo sapiens, UniProt Q9H4A4); assay: Inhibition of aminopeptidase B; type: biochemical; settings: substrate L-lysine 2-naphthylamide, room temperature; read-out: Aminopeptidase B IC50 (converted)
Method: The activity of the enzyme aminopeptidase B was determined photometrically using the substrate L-lysine 2-naphthylamide at room temperature. […] In the same way, the inhibition of leucine aminopeptidase was investigated using L-leucine 4-nitroanilide as enzyme substrate. The IC50 values are compiled in Table 6.

Listeria monocytogenes [4] = assay: DTH reaction in mice infected with Listeria monocytogenes; type: in vivo, female NMRI mice
Method: In this experiment, the specific, cell-mediated immunity against the bacterium Listeria monocytogenes was investigated by means of the DTH reaction Female NMRI mice were infected with 2×10^2 live bacteria and then divided into groups each containing 10 animals. The treatment of the animals by intraperitoneal administration of the product in doses of 0.1, 1 or 10 mg/kg was started the same day. This treatment was repeated after 2, 4 and 6 days. Infected animals in a fourth experimental group, which received merely the pure vehicle i.p. in place of the product, acted as positive control. On day 13 of the experiment the DTH reaction was induced by injection of a soluble antigen obtained from Listeria monocytogenes into the footpad. 10 uninfected animals in a 5th experimental group (negative control) were likewise treated with the antigen in order to rule out non-specific reactions to the antigen challenge 24 hours after the administration of antigen, the percentage increase in the paw volume was determined as a measure of the induced DTH reaction.
The same experimental system was also used to examine the effect of the test substance on i.p. administration of 10 mg/kg on the DTH reaction of female NMRI mice after infection with differing amounts of the bacterium Listeria monocytogenes. The animals received either 2×10^2 or 5×10^2 organisms. According to this, although the DTH reaction is increased by the test substance at both organism concentrations, this stimulation is distinctly more pronounced in the animal group infected with the lower number of organisms.

Sequence of aminopeptidase B (Q9H4A4 whole entry, species assumed): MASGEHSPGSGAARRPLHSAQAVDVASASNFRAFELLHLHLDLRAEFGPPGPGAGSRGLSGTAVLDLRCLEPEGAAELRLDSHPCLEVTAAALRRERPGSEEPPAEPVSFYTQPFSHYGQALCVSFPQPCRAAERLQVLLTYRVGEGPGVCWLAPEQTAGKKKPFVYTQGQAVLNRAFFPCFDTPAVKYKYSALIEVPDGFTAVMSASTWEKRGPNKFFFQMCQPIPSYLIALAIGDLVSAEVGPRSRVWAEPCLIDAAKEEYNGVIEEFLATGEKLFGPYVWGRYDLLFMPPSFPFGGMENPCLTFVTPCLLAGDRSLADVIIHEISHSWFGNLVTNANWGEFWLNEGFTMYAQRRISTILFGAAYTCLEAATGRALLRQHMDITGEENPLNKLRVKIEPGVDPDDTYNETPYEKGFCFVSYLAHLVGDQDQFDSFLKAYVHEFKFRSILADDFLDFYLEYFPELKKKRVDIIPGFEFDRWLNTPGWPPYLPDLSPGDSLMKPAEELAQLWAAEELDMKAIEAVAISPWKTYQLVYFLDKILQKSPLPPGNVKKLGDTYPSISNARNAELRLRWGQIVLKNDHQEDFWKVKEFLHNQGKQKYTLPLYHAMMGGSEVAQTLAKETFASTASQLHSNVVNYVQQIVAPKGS

O=P(O)(O)C1CC(c2ccccc2)=NO1 (racemic) [Example 34, 3-Phenyl-2-isoxazolin-5-ylphosphonic acid]
Chemiluminescence (peritoneal macrophages [1]; 5 mg/kg i.p.): 842 ± 42 RLU/15 min × 10^3 | Chemiluminescence (peritoneal macrophages [1]; 5 mg/kg p.o.): 728 ± 101 RLU/15 min × 10^3 | Chemiluminescence (peritoneal macrophages [1]; 10 mg/kg i.p.): 2842 ± 223 RLU/15 min × 10^3 | Chemiluminescence (peritoneal macrophages [1]; 10 mg/kg p.o.): 2140 ± 156 RLU/15 min × 10^3 | Chemiluminescence (peritoneal macrophages [1]; 20 mg/kg i.p.): 4935 ± 516 RLU/15 min × 10^3 | Chemiluminescence (peritoneal macrophages [1]; 20 mg/kg p.o.): 3286 ± 283 RLU/15 min × 10^3 | Chemiluminescence (peritoneal macrophages [1]; 40 mg/kg i.p.): 6990 ± 290 RLU/15 min × 10^3 | Chemiluminescence (peritoneal macrophages [1]; 40 mg/kg p.o.): 4405 ± 197 RLU/15 min × 10^3 | chemiluminescence, in words (peritoneal macrophages [1]; i.p. and p.o.): pronounced dose-dependent increase in chemiluminescence | Enzyme activity N-Ac-Glu (peritoneal macrophages [2]; 5 mg/kg i.p.): 2607 mU/ml | Enzyme activity β-Gal (peritoneal macrophages [2]; 5 mg/kg i.p.): 2357 mU/ml | Enzyme activity β-Glu (peritoneal macrophages [2]; 5 mg/kg i.p.): 1197 mU/ml | Enzyme activity N-Ac-Glu (peritoneal macrophages [2]; 5 mg/kg p.o.): 2071 mU/ml | Enzyme activity β-Gal (peritoneal macrophages [2]; 5 mg/kg p.o.): 2216 mU/ml | Enzyme activity β-Glu (peritoneal macrophages [2]; 5 mg/kg p.o.): 973 mU/ml | Enzyme activity N-Ac-Glu (peritoneal macrophages [2]; 10 mg/kg i.p.): 4822 mU/ml | Enzyme activity β-Gal (peritoneal macrophages [2]; 10 mg/kg i.p.): 3956 mU/ml | Enzyme activity β-Glu (peritoneal macrophages [2]; 10 mg/kg i.p.): 1542 mU/ml | Enzyme activity N-Ac-Glu (peritoneal macrophages [2]; 10 mg/kg p.o.): 4283 mU/ml | Enzyme activity β-Gal (peritoneal macrophages [2]; 10 mg/kg p.o.): 3513 mU/ml | Enzyme activity β-Glu (peritoneal macrophages [2]; 10 mg/kg p.o.): 1393 mU/ml | Enzyme activity N-Ac-Glu (peritoneal macrophages [2]; 20 mg/kg i.p.): 6812 mU/ml | Enzyme activity β-Gal (peritoneal macrophages [2]; 20 mg/kg i.p.): 6918 mU/ml | Enzyme activity β-Glu (peritoneal macrophages [2]; 20 mg/kg i.p.): 2067 mU/ml | Enzyme activity N-Ac-Glu (peritoneal macrophages [2]; 20 mg/kg p.o.): 6128 mU/ml | Enzyme activity β-Gal (peritoneal macrophages [2]; 20 mg/kg p.o.): 6011 mU/ml | Enzyme activity β-Glu (peritoneal macrophages [2]; 20 mg/kg p.o.): 1979 mU/ml | Enzyme activity N-Ac-Glu (peritoneal macrophages [2]; 40 mg/kg i.p.): 9281 mU/ml | Enzyme activity β-Gal (peritoneal macrophages [2]; 40 mg/kg i.p.): 9318 mU/ml | Enzyme activity β-Glu (peritoneal macrophages [2]; 40 mg/kg i.p.): 2547 mU/ml | Enzyme activity N-Ac-Glu (peritoneal macrophages [2]; 40 mg/kg p.o.): 8432 mU/ml | Enzyme activity β-Gal (peritoneal macrophages [2]; 40 mg/kg p.o.): 9262 mU/ml | Enzyme activity β-Glu (peritoneal macrophages [2]; 40 mg/kg p.o.): 2286 mU/ml | release of acid hydrolases, in words (peritoneal macrophages [2]; i.p. or oral): increased as a function of the dose | % of surviving animals with liver necroses (Salmonella typhimurium): 58% | % of surviving animals with organism-positive livers (Salmonella typhimurium): 67% | % of surviving animals with severe liver necroses (Salmonella typhimurium): 42% | % of surviving animals with spleen necroses (Salmonella typhimurium): 0% | Mortality (Salmonella typhimurium): 8/20 | % survival after 100 days (B16 melanoma; 1.25 mg/kg i.p.): 20% | Mean survival time (B16 melanoma; 1.25 mg/kg i.p.): 41 days | % survival after 100 days (B16 melanoma; 2.50 mg/kg i.p.): 30% | Mean survival time (B16 melanoma; 2.50 mg/kg i.p.): 43 days | survival of the second infection (Listeria monocytogenes [3]): survived the second infection | % of surviving animals with organisms in the liver (Listeria monocytogenes [3]; 5 days after second infection): 20% | Mortality after secondary infection (Listeria monocytogenes [3]; second infection 10^6 organisms): 0/10 | Mortality (Staphylococcus aureus; 0.1 mg/kg 4 × i.p.): 5/20 | Mortality (Staphylococcus aureus; 1.0 mg/kg 4 × i.p.): 8/20 | Mortality (Staphylococcus aureus; 10.0 mg/kg 4 × i.p.): 8/20 | IC50 (aminopeptidase B): 99.1 µM | DTH reaction % increase in the paw volume (Listeria monocytogenes [4]; 2×10^2 bacteria, 0.1 mg/kg 4 × i.p.): 13.3 ± 9.7% | DTH reaction % increase in the paw volume (Listeria monocytogenes [4]; 2×10^2 bacteria, 1.0 mg/kg 4 × i.p.): 15.0 ± 7.0% | DTH reaction % increase in the paw volume (Listeria monocytogenes [4]; 2×10^2 bacteria, 10.0 mg/kg 4 × i.p., p <0.05 (Student's t test)): 19.2 ± 9.4% | DTH reaction % increase in the paw volume (Listeria monocytogenes [4]; Table 13 experiment: 2 × 10^2 organisms, 4 × 10 mg/kg i.p.): 30.9 ± 15.3% | DTH reaction % increase in the paw volume (Listeria monocytogenes [4]; Table 13 experiment: 5 × 10^2 organisms, 4 × 10 mg/kg i.p.): 17.9 ± 12.1%

Reference: patent US5006515A, “Pharmaceuticals, phosphorus-containing 2-isoxazolines and isoxazoles contained therein” (Hoechst Aktiengesellschaft, priority 1987, dated 1991)
